From patent US8420659B2, “Compositions and methods for inhibition of the JAK pathway” (Rigel Pharmaceuticals, Inc., priority 2008, dated 2013) come the findings set out here.

The test deals with Human primary T-cells. Briefly: Cell Titer-Glo, Human primary T Cell, IL2 (proliferation). Type of test: cell-based. To be noted: IL-2 stimulated primary T-cell proliferation, 72 hours at 37° C., Cell Titer-Glo luminescence. From the text: The activity of the compounds described herein can further be characterized by assaying the effect of the 2,4-pyrimidinediamine compounds described herein on the proliferative response of primary human T-cells. In this assay, primary human. T-cells derived from peripheral blood and pre-activated through stimulation of the T-cell receptor and CD28, proliferate in culture in response to the cytokine Interleukin-2 (IL-2). This proliferative response is dependent on the activation of JAK1 and JAK3 tyrosine kinases, which phosphorylate and activate the transcription factor Stat-5. The primary human T-cells are incubated with the 2,4-pyrimidinediamine compounds in the presence of IL-2 for 72 hours, and at the assay endpoint intracellular ATP concentrations are measured to assess cell viability. A reduction in cell proliferation compared to control conditions is indicative of inhibition of the JAK kinase pathway.
Cell Titer-Glo, Human primary T Cell, IL2
Materials and Reagents: Dimethyl Sulfoxide (DMSO) (Sigma-Aldrich, Cat# D2650) was used as a control. The following reagents were used: Ficoll Hypaque (Amersham Pharmacia, Cat#17-1440-03), Anti-Human CD3 (BD Pharmingen, Cat#555336), Anti-Human CD28 (Immunotech, Cat# IM1376), Yssel's Media (Gemini Bio-products, Cat#400-103), RPMI 1640 (Cellgro, Cat#10-040-CM), Fetal Bovine Serum (JRH, Cat#12106-500M), and […] (R& D Systems, Cat#202-IL).
Human primary T-cells were isolated and cultured according to the following procedure. Whole blood was obtained from a healthy volunteer, mixed 1:1 with PBS, layered on to Ficoll Hypaque in 2:1 blood/PBS:ficoll ratio and centrifuged for 30 min at 4° C. at 1750 rpm. The lymphocytes at the serum: ficoll interface were recovered and washed twice with 5 volumes of PBS. The cells were resuspended in Yssel's medium containing 40 U/mL IL-2 and seeded into a flask pre-coated with […] anti-CD3 and […] anti-CD28. The primary T-cells were stimulated for 3-4 days, then transferred to a fresh flask and maintained in RPMI with 10% FBS and 40 U/mL IL-2.
Primary T-cells were starved of IL-2 overnight and resuspended in Yssel's medium at 2×10^6 cells/mL. 50 μL of cell suspension containing 80 U/mL IL-2 was added to each well of a flat bottom 96 well black plate. For the unstimulated control, IL-2 was omitted from the last column on the plate. Compound was serially diluted in DMSO from 5 mM in 3-fold dilutions, and then diluted 1:250 in Yssel's medium. 50 μL of 2× compound was added per well in duplicate and the cells were allowed to proliferate for 72 hours at 37° C.
Proliferation was measured using Cell Titer-Glo. The substrate was thawed and allowed to come to room temperature. After mixing the Cell Titer-Glo reagent and diluent together, 100 μL was added to each well. The plates were mixed on an orbital shaker for two minutes to induce lysis and incubated at room temperature for an additional ten minutes to allow the signal to equilibrate. The Luminescence was read on the Wallac Plate Reader (Wallac Victor2 1420 Multilabel Counter).
Turning to `CCNS(=O)(=O)NCc1ccc(Nc2nc(Nc3cccc(S(N)(=O)=O)c3)ncc2Cl)cc1` [Compound I-5, N2-(3-Aminosulfonylphenyl)-5-chloro-N4-[4-[(N-ethylsulfamoylamino)methyl]phenyl]-2,4-pyrimidinediamine], the 50% inhibitory concentration (IC50) was under 500 nM. To `CCNS(=O)(=O)NCc1ccc(Nc2nc(Nc3ccc(S(N)(=O)=O)cc3)ncc2C)cc1` [Compound I-8, N2-(4-Aminosulfonylphenyl)-N4-[4-[(N-ethylsulfamoylamino)methyl]phenyl]-5-methyl-2,4-pyrimidinediamine] belongs under 500 nM. To `CCNS(=O)(=O)NCc1cccc(Nc2nc(Nc3cccc(S(N)(=O)=O)c3)ncc2Cl)c1` [Compound I-9, N2-(3-Aminosulfonylphenyl)-5-chloro-N4-[3-[(N-ethylsulfamoylamino)methyl]phenyl]-2,4-pyrimidinediamine] belongs under 500 nM; to `CCNS(=O)(=O)NCc1cccc(Nc2nc(Nc3ccc(S(N)(=O)=O)cc3)ncc2Cl)c1` [Compound I-10, N2-(4-Aminosulfonylphenyl)-5-chloro-N4-[3-[(N-ethylsulfamoylamino)methyl]phenyl]-2,4-pyrimidinediamine], under 500 nM. To `CCNS(=O)(=O)NCc1cccc(Nc2nc(Nc3cccc(S(N)(=O)=O)c3)ncc2C)c1` [Compound I-11, N2-(3-Aminosulfonylphenyl)-N4-[3-[(N-ethylsulfamoylamino)methyl]phenyl]-5-methyl-2,4-pyrimidinediamine] belongs under 500 nM; to `CCNS(=O)(=O)NCc1cccc(Nc2nc(Nc3ccc(S(N)(=O)=O)cc3)ncc2C)c1` [Compound I-12, N2-(4-Aminosulfonylphenyl)-N4-[3-[(N-ethylsulfamoylamino)methyl]phenyl]-5-methyl-2,4-pyrimidinediamine], under 500 nM. `CCNS(=O)(=O)NCc1cccc(Nc2nc(Nc3cccc(S(N)(=O)=O)c3)ncc2F)c1` [Compound I-13, N2-(3-Aminosulfonylphenyl)-N4-[3-[(N-ethylsulfamoylamino)methyl]phenyl]-5-fluoro-2,4-pyrimidinediamine] showed an IC50 of under 500 nM. To `CCNS(=O)(=O)NCc1ccc(Nc2nc(Nc3cccc(S(N)(=O)=O)c3)ncc2Cl)c(C)c1` [Compound I-15, N2-(3-Aminosulfonylphenyl)-5-chloro-N4-[4-[(N-ethylsulfamoylamino)methyl]-2-methylphenyl]-2,4-pyrimidinediamine] belongs under 500 nM; to `NS(=O)(=O)c1ccc(Nc2ncc(Cl)c(Nc3ccc(CNS(=O)(=O)NC4CC4)cc3)n2)cc1` [Compound I-19, N2-(4-Aminosulfonylphenyl)-5-chloro-N4-[4-[(N-cyclopropylsulfamoylamino)methyl]phenyl]-2,4-pyrimidinediamine], under 500 nM.
